pKi: −log10 of the molar value. Converted amounts (≈) assume the structure as drawn. “Also recorded” adds a separate entry of the source.
Tests used:
α-glucosidase [1] = assay: In vitro α-glucosidase inhibition assay (pNPG substrate); format: biochemical, Saccharomyces Cerevisiae; conditions: for IC50: means ± SEM of triplicate
Procedure: The α-glucosidase inhibition assay was performed as described previously. In summary, the stock solution of the enzyme from Saccharomyces Cerevisiae (0.2 U/mL) was prepared in 0.05 M sodium phosphate buffer pH 6.8. […] After incubation, 10 µL of the substrate, p-nitrophenyl α-D-glucopyranoside (pNPG, 5 mM solution in 0.05 M phosphate buffer) was added to the aboveprepared mixture and incubated again under the same experimental conditions. The reaction was stopped with the addition of 0.1 M Na2CO3 and OD405 was taken by a 96-well ELISA reader. The experiment was performed in triplicate.

α-glucosidase [2] = assay: Kinetic analysis and inhibition mechanism of α-glucosidase inhibition; format: biochemical, Saccharomyces Cerevisiae
Procedure: The potential inhibitor with concentrations 0.00, 0.062, 0.125, 0.25, 0.5 mM was selected for kinetic studies. The substrate (pNPG) concentration was optimised from 5 to 40 mM in all kinetic studies. Pre-incubation and measurement time was the same as discussed in α-glucosidase inhibition assay. The assay was continuously monitored at 405 nm for 5 min at 30 s intervals in the microplate reader after the addition of the enzyme. The inhibition type on the enzyme was assayed by Lineweaver–Burk plots of the inverse of velocities (1/V) versus the inverse of substrate concentration 1/[S] mM^−1, and the inhibition constant Ki was determined by two ways (Dixon plot of 1/V versus inhibitor concentrations) as well as secondary replot of slope versus inhibitor concentrations from Lineweaver–Burk plot.
The plot of the remaining enzyme activity versus the concentrations of the enzyme at different inhibitor concentrations (0.00, 0.062, 0.125, 0.25 and 0.5 mM) was calculated.

E. coli = assay: Antibacterial activity, minimum inhibitory concentration; format: cell-based; design: key: R: resistant; S: sensitive
Procedure: (§1) The prepared azo derivatives were screened for their antibacterial activity against six bacterial strains obtained from hospital isolates i.e. gram positive (S. aureus, S. aureus (DR)) and gram-negative (E. coli, P. aeruginosa, P. aeruginosa (DR), P. vulgaris). All the strains were confirmed by biochemical identification and drug susceptibility methods. The antibacterial evaluation was done by agar disc diffusion method[39]^,[40] and MIC was determined. In summary, a 48-h old inoculum having ∼0.48 OD600, of the above-mentioned bacterial strains was spread on the solidified trypticase soy agar media and Whatman no. 1 filter paper discs (5 mm in diameter) soaked with the title compounds (10 µL/disc of 10 mg/mL) were placed on the plates. Ampicillin and moxifloxacin were used as positive controls and DMSO as negative control respectively.

P. aeruginosa (DR) [3] = assay: as above; format: cell-based; design: key: R: resistant; S: sensitive
Procedure: as §1

P. aeruginosa (DS) [4] = assay: as above; format: cell-based; design: key: R: resistant; S: sensitive
Procedure: as §1

P. vulgaris = assay: as above; format: cell-based; design: key: R: resistant; S: sensitive
Procedure: as §1

S. aureus (DR) [5] = assay: as above; format: cell-based; design: key: R: resistant; S: sensitive
Procedure: as §1

S. aureus (DS) [6] = assay: as above; format: cell-based; design: key: R: resistant; S: sensitive
Procedure: as §1

S. aureus (DS) [7] = assay: Antibiofilm assay (crystal violet); format: cell-based; conditions: 0.5 mg/mL
Procedure: (§2) The antibiofilm activity of the synthesised azo derivatives was assessed by microtitre plate-based crystal violet method[44] against respective bacterial strains i.e. gram-positive (S. aureus, S. aureus (DR)) and gram-negative (P. aeruginosa, P. aeruginosa (DR)). In brief, 10 µL bacterial suspension, 100 µL trypticase soy broth and 10 µL (10 mg/mL) of test compounds were added in the wells in duplicates and incubated at 37 °C overnight. Ampicillin and moxifloxacin were used as positive controls. After the aspiration of planktonic cells, the biofilm was fixed with 99% methanol. The wells were then washed with 0.1 M sterile PBS (pH = 6.9) thrice and air-dried. Then, 200 µL of crystal violet solution (2%) was added to all wells. After 15 min, the excess of the crystal violet dye was removed and the wells were washed again with PBS. Then, the cell-bound crystal violet was dissolved in 33% acetic acid. The biofilm growth was quantified in terms of OD575 nm using an ELISA plate reader and biofilm hydrolysis was calculated by % inhibition formula.

[8] = system: screened pathogens (S. aureus, P. aeruginosa, E. coli and P. vulgaris); assay: Antibacterial activity, average MIC over screened pathogens; format: cell-based
Procedure: as §1, with “All the strains were confirmed by biochemical identification and drug susceptibility methods.” left out, “plates.” for “plates. Ampicillin and moxifloxacin were used as positive controls and DMSO as negative control respectively.”

P. aeruginosa (DR) [9] = assay: Antibiofilm assay (crystal violet); format: cell-based; conditions: 0.5 mg/mL; for inhibition at 500 µg/mL: Pseudomonas aeruginosa, read-out: biofilm inhibition (anti-biofilm potency)
Procedure: as §2

P. aeruginosa (DS) [10] = assay: Antibiofilm assay (crystal violet); format: cell-based; conditions: 0.5 mg/mL
Procedure: as §2

S. aureus (DR) [11] = assay: Antibiofilm assay (crystal violet); format: cell-based; conditions: 0.5 mg/mL
Procedure: as §2

Row | Molecule | % Inhibition (α-glucosidase [1]; 15.62 µg/mL) [%] | % Inhibition (α-glucosidase [1]; 31.2 µg/mL) [%] | % Inhibition (α-glucosidase [1]; 125 µg/mL) [%] | % Inhibition (α-glucosidase [1]; 250 µg/mL) [%] | IC50 (α-glucosidase [1]) [µg/mL] | Minimum inhibitory concentration: sensitive/resistant (E. coli; 125 µg/200 µL) | Minimum inhibitory concentration: sensitive/resistant (E. coli; 250 µg/200 µL) | Minimum inhibitory concentration: sensitive/resistant (P. aeruginosa (DR) [3]; 125 µg/200 µL) | Minimum inhibitory concentration: sensitive/resistant (P. aeruginosa (DR) [3]; 250 µg/200 µL) | Minimum inhibitory concentration: sensitive/resistant (P. aeruginosa (DS) [4]; 125 µg/200 µL) | Minimum inhibitory concentration: sensitive/resistant (P. aeruginosa (DS) [4]; 250 µg/200 µL) | Minimum inhibitory concentration: sensitive/resistant (P. vulgaris; 125 µg/200 µL) | Minimum inhibitory concentration: sensitive/resistant (P. vulgaris; 250 µg/200 µL) | Minimum inhibitory concentration: sensitive/resistant (S. aureus (DR) [5]; 125 µg/200 µL) | Minimum inhibitory concentration: sensitive/resistant (S. aureus (DR) [5]; 250 µg/200 µL) | Minimum inhibitory concentration: sensitive/resistant (S. aureus (DS) [6]; 125 µg/200 µL) | Minimum inhibitory concentration: sensitive/resistant (S. aureus (DS) [6]; 250 µg/200 µL) | biofilm inhibition (S. aureus (DS) [7]) | melting point [°C] | other results
1 | O=[N+]([O-])c1ccc(/N=N/c2ccc(O)cc2O)cc1 [TR-1, (E)-4-((4-nitrophenyl)diazenyl)benzene-1,3-diol] | 49 | 68 | 88 | 95 | 15.70 ± 1.3 (≈ 60.6 µM) | S | S | S | S | R | R | S | S | R | R | S | S | greater than 70% | – | pKi (α-glucosidase [2]; EI dissociation constant, Dixon plot and secondary replot): 3.66; Inhibition type (α-glucosidase [2]; Lineweaver–Burk plot): Non-competitive; Km (α-glucosidase [2]; inhibitor dose 0.062 mM): 20 mM; Vmax (α-glucosidase [2]; inhibitor dose 0.062 mM): 0.166 ΔA/S; Km (α-glucosidase [2]; inhibitor dose 0.125 mM): 20 mM; Vmax (α-glucosidase [2]; inhibitor dose 0.125 mM): 0.125 ΔA/S; Km (α-glucosidase [2]; inhibitor dose 0.25 mM): 20 mM; Vmax (α-glucosidase [2]; inhibitor dose 0.25 mM): 0.090 ΔA/S; Km (α-glucosidase [2]; inhibitor dose 0.50 mM): 20 mM; Vmax (α-glucosidase [2]; inhibitor dose 0.50 mM): 0.071 ΔA/S; Inhibition (reversibility) (α-glucosidase [2]; remaining enzyme activity versus enzyme concentration): reversibly; also recorded: reversible; MIC (average value) [8]: 125 µg/200 µL
2 | O=[N+]([O-])c1ccc(/N=N/c2c(O)ccc3ccccc23)cc1 [TR-3, (E)-1-((4-nitrophenyl)diazenyl)naphthalen-2-ol] | 12 | 25 | 54 | – | 116.9 ± 8.6 (≈ 399 µM) | R | R | R | R | R | S | R | R | R | R | R | R | greater than 70% | 245 to 252 | –
3 | Oc1ccc(N=Nc2cccnc2Cl)c(O)c1 [TR-7, 4-((2-chloropyridin-3-yl)diazenyl)benzene-1,3-diol] | 34 | 52 | 77 | 87 | 29.7 ± 2.8 (≈ 119 µM) | R | R | S | S | R | R | R | R | R | R | R | R | – | 187 to 189 | inhibition at 500 µg/mL (P. aeruginosa (DR) [9]): 55%; biofilm inhibition (P. aeruginosa (DS) [10]): not found active
4 | Oc1ccc(N=Nc2cccnc2Cl)c2ccccc12 [TR-8, 4-((2-chloropyridin-3-yl)diazenyl)naphthalen-1-ol] | 29 | 45 | 75 | 98 | 36.7 ± 3.1 (≈ 129 µM) | R | R | R | R | R | S | R | R | R | R | S | S | greater than 70% | 170 to 175 | inhibition at 500 µg/mL (P. aeruginosa (DR) [9]): 80%; biofilm hydrolysis efficiency (S. aureus (DR) [11]): drastically decreased
5 | (E)-1-(p-tolyldiazenyl)naphthalen-2-ol [TR-5] | 14 | 22 | 49 | 56 | 153.4 ± 11.5 | S | S | S | S | R | S | R | R | S | S | R | R | – | – | biofilm inhibition (anti-biofilm potency) (P. aeruginosa (DR) [9]): 80%
6 | (E)-4-(p-tolyldiazenyl)naphthalen-1-ol [TR-4] | 7 | 13 | 35 | 43 | – | R | R | S | S | S | S | S | S | S | S | S | S | – | – | MIC (average value) [8]: 125 µg/200 µL
7 | penicillin [reference compound] | – | – | – | – | – | – | – | – | – | – | – | – | – | – | – | – | – | 65% | – | biofilm inhibition (P. aeruginosa (DS) [10]): 60%

— paper PMC8274517, “Diaryl azo derivatives as anti-diabetic and antimicrobial agents: synthesis, in vitro, kinetic and docking studies” (Journal of Enzyme Inhibition and Medicinal Chemistry, 2021)
